Laboratory results from publication PMC9381674 (Cardiology and Therapy, 2022).
Read-outs that look alike come from different tables or passages of the source.

How the values were obtained:
CYP3A4/5 [1] = conditions: strong index inhibitor of CYP3A4/5; cited from earlier work
P-gp = conditions: inhibitor for P-gp; cited from earlier work
[2] = compared to intravenous administration; extensive first-pass effect; cited from earlier work
Safety assessments = format: in vivo, human; conditions: single dose of milvexian alone and in combination with itraconazole or diltiazem
CYP3A4/5 [3] = conditions: preclinical results; ref unpublished data; cited from earlier work
P-glycoprotein (P-gp) = conditions: preclinical results; ref unpublished data; cited from earlier work
[4] = format: in vivo, human
[5] = test system: arterial and venous thrombosis; conditions: preclinical models of arterial and venous thrombosis; cited from earlier work
[6] = co-administration of itraconazole

CCC(C)n1ncn(-c2ccc(N3CCN(c4ccc(OCC5COC(Cn6cncn6)(c6ccc(Cl)cc6Cl)O5)cc4)CC3)cc2)c1=O (stereo not shown) [Itraconazole]
increase in the AUC of sensitive substrates (CYP3A4/5 [1]): ≥ 10 fold | increase in the AUC of digoxin (P-gp): > 1.25 fold

COc1ccc([C@@H]2Sc3ccccc3N(CCN(C)C)C(=O)[C@@H]2OC(C)=O)cc1 [Diltiazem]
absolute oral bioavailability [2]: about 40%

C[C@@H]1CCC[C@H](n2cnc(-c3cc(Cl)ccc3-n3cc(Cl)nn3)cc2=O)c2cc(ccn2)-c2c(cnn2C(F)F)NC1=O [Milvexian]
deaths or serious AEs during the study (Safety assessments): no deaths or serious AEs | substrate of CYP3A4/5 (CYP3A4/5 [3]): substrate of CYP3A4/5 | substrate for P-glycoprotein (P-glycoprotein (P-gp)): substrate for P-glycoprotein | AUC(0–T) higher compared with milvexian alone ([4]; co-administration of diltiazem): 38% | AUC(INF) higher compared with milvexian alone ([4]; co-administration of diltiazem): 38% | C24 higher compared with milvexian alone ([4]; co-administration of diltiazem): 64% | mean Cmax higher compared with milvexian alone ([4]; co-administration of diltiazem): 9.6% | mean T1/2 longer compared with milvexian alone ([4]; co-administration of diltiazem): ~1.1 fold | AUC(0–T) higher compared with milvexian alone [4, 6]: 2.5 fold | AUC(INF) higher compared with milvexian alone [4, 6]: 2.5 fold | C24 higher compared with milvexian alone [4, 6]: 3.8 fold | mean T1/2 longer compared with milvexian alone [4, 6]: approximately 1.5 fold | effect of co-administration on median Tmax of milvexian ([4]; co-administration of itraconazole or diltiazem): not altered | impact of a moderate CYP3A inhibitor on milvexian exposure ([4]; diltiazem co-administration): less than 2.5 fold | impact of a strong CYP3A inhibitor on milvexian exposure ([4]; itraconazole co-administration): < 5 fold | antithrombotic activity [5]: demonstrated antithrombotic activity while preserving homeostasis
